According to patent US20050163852A1, “Process for loading and thermodynamically activating drungs on polymers by means of supercritical fluids” (priority 2002, published 2005):

Test: Activation level by Differential Scanning Calorimetry (fraction of crystalline form)
Assay type: physicochemical
Settings: DSC, ΔHmelting/ΔH0 normalized to drug assayed in the polymer
Method: The presence of amorphous, nanocrystalline or crystal phase can be detected by means of Differential Scanning Calorimetry (DSC). Compared to the sharp melting peak of the drug crystal, the nanocrystals present a broader peak with a markedly lower maximum of temperature (I. Colombo et al. 4th Int. Conf. Pharm. Technol., 1986; F. Carli et al. Acta Pharm. Jugosl. 38, 361, 1988).
In the examples, the activation level is expressed as the fraction of crystalline form. It is determined by comparing the enthalpy relative to the melting of the crystals in the polymer (ΔHmelting) to that of pure drug (ΔH0). The ΔHmelting/ΔH0 ratio, normalized in accordance with the drug assayed in the polymer, is then considered equal to the fraction of crystalline form. The higher the amount of crystals (higher crystallinity), the lower the thermodynamic activation level of the drug.

| Structure (SMILES) | Crystallinity (ibuprofen, supercritical CO2) [%] | Crystallinity (ibuprofen, supercritical ethylene) [%] | Crystallinity (nimesulide, supercritical CO2) [%] |
| --- | --- | --- | --- |
| CC(C)Cc1ccc(C(C)C(=O)O)cc1 (stereo not drawn) [Ibuprofen, ibuprofen] | 100 | 100 |  |
| CS(=O)(=O)Nc1ccc([N+](=O)[O-])cc1Oc1ccccc1 [Nimesulide, nimesulide] |  |  | 100 |
